Article PMC3525792 (Bioorganic & medicinal chemistry letters, 2012)

Target: EGFP-hSERT (UniProt P31645+P42212, F64L/H231L/S65T)
Type: cell-based, human

In the case of CCN(CC)c1ccc2c(-c3ccc(S(=O)(=O)NCCCCCC(=O)NCCC(=O)Nc4cccc(-c5ccc6c(c5)COC6(CCCN(C)C)c5ccc(F)cc5)c4)cc3S(=O)(=O)[O-])c3ccc(=[N+](CC)CC)cc-3oc2c1 (centres unmarked) [compound 8], the “labeling of EGFP-SERT in live cells in the presence of paroxetine” value (20 nM 8, 37°C, preincubation with 1 μM paroxetine 30 min) is reported as “no fluorescence was observed at the cell surface in the red channel” and the “labeling of EGFP-SERT in live cells” value (20 nM 8, 60 min at 37°C, HEK293 EGFP-hSERT, without paroxetine) is reported as “labels SERT with high specificity”.
